Measured values from patent US20140163061A1, “Methods For Reducing Blood Pressure” (FibroGen, Inc., priority 2008, published 2014).

Assays:
[1] = system: Nx rats (5/6 nephrectomy, hypertensive chronic kidney disease); test: Nx rats treated with various HIF prolyl hydroxylase inhibitors, change in systolic blood pressure after four weeks, Example 4; type: in vivo, rat; conditions: 40 mg/kg oral
Experimental: (§1) A characteristic pathophysiology found in the uremic chronic kidney disease (CKD) population is hypertension. […] (Priyadarshi et al. (2002) Kidney Int 61:542-546; Coleman et al. (2006) Proc Natl Acad Sci USA 103:5965-5970.) The surgical procedure used to generate the rat remnant kidney was performed according to modification of the procedure described by Priyadarshi et al. (supra) or according to modification of the procedure described by Tanaka et al. (2005, Lab Invest 85:1292-1307). Separate studies used either male Sprague Dawley rats (280-300 g) or female Wistar rats (220-250 g).
Animals were divided into two groups of which one group (sham) underwent sham surgery and the other group (Nx) was subjected to 5/6 nephrectomy as follows. Animals were anesthetized under isoflurane, and a midline abdominal incision was made, followed by blunt dissection of the renal pedicles. Two or three branches of the left renal artery were ligated to infarct two thirds of the left kidney, while the right kidney underwent simultaneous nephrectomy. The infarct was verified by observing the change in kidney color. Animal body temperature was maintained constant, and warm (˜37° C.) saline (1.0 mL) was administered directly into the abdomen. Thereafter, the incision was sutured and the animal was allowed to recover and have free access to regular food and water. Animal body weight and mortality were closely monitored.
Starting 35 days after surgery, Nx and sham animals were randomly divided into groups and treated with either vehicle or compound A. Compound was dosed three times per week by oral gavage at 20 or 40 mg/kg compound per dose. Blood pressure (BP) was measured using a Kent XBP1000 system (Kent Scientific Corp., Torrington, Conn.) or a Muromachi tail-cuff blood pressure system (Muromachi Kikai Co., Ltd., Tokyo, Japan), both having volume/pressure recording technology and used according to the manufacturer's instruction. Rats were slightly warmed under a lamp and conditioned carefully before the measurement. BP was recorded as the mean value of 3 separate measurements obtained at each session and reported herein as mean±SEM. Results are compared using 1-way analysis of variance (ANOVA) and Student-Newman-Keuls method (SigmaStat, SPSS Science, Chicago, Ill.).
In another series of experiments, rats subjected to 5/6 nephrectomy were treated 35 days after surgery according to the dosing schedule described in Example 3 above with a HIF prolyl hydroxylase inhibitor. Individual compound selected from the group consisting of compounds A and C-K were administered by oral gavage at 8, 20, 30, or 40 mg/kg (see Table 1 and Table 2). Systolic blood pressure was recorded at day 35 (baseline) and again immediately following the last dose of compound. Table 1 and Table 2 show changes in systolic blood pressure following four weeks of oral administration of various compounds of the present invention to Nx rats.

[2] = system: Nx rats (5/6 nephrectomy, hypertensive chronic kidney disease); test: Rat remnant kidney model (5/6 nephrectomy) of CKD, tail-cuff systolic blood pressure, Example 3; type: in vivo; conditions: mean±SEM, p<0.05 vs vehicle-treated Nx rats (195.7±24.4)
Experimental: as §1
Animals were divided into two groups of which one group (sham) underwent sham surgery and the other group (Nx) was subjected to 5/6 nephrectomy as follows. […] Animal body weight and mortality were closely monitored.
Starting 35 days after surgery, Nx and sham animals were randomly divided into groups and treated with either vehicle or compound A. Compound was dosed three times per week by oral gavage at 20 or 40 mg/kg compound per dose. Blood pressure (BP) was measured using a Kent XBP1000 system (Kent Scientific Corp., Torrington, Conn.) or a Muromachi tail-cuff blood pressure system (Muromachi Kikai Co., Ltd., Tokyo, Japan), both having volume/pressure recording technology and used according to the manufacturer's instruction. […]

For `Cc1nc(C(=O)NCC(=O)O)c(O)c2ccc(Oc3ccccc3)cc12` [A, [(4-hydroxy-1-methyl-7-phenoxy-isoquinoline-3-carbonyl)-amino]-acetic acid], the “SBP (mmHg) Change from Baseline” value [1] was −31.10 mmHg, the “SBP (mmHg) Change from Vehicle” value [1] was −40.31 mmHg and the “systolic blood pressure (SBP)” value ([2]; 20 mg/kg oral gavage three times per week) was 164.7±26.7 mmHg. The “systolic blood pressure (SBP)” value ([2]; 40 mg/kg oral gavage three times per week) was 155.4±42.9 mmHg.
